Consider 17 molecules from patent US20250228239A1, “MOLECULES HAVING PESTICIDAL UTILITY, AND INTERMEDIATES, COMPOSITIONS, AND PROCESSES, RELATED THERETO” (priority 2024, published 2025).

Holding throughout (type): in vivo
The test system of series [1] is Yellow Fever Mosquito (Aedes aegypti, AEDSAE). The following applies: for YFM rating: Table ABC / ABC-DP rating. The method in brief:
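Compounds from DMSO master plates (4000 ppm stock) diluted in 90:10 water/acetone, then dispensed into six replicate plates and infested with ~1-day-old Aedes aegypti larvae in liver-powder water. Held covered at room temperature for 3 days; each well scored for larval mortality and graded on a rating scale.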

The subject of series [2] is Beet Armyworm (Spodoptera exigua, LAPHEG). In words: Bioassays on Beet Armyworm (BAW), 128-well diet tray assay. The conditions noted are these: Spodoptera exigua. The method in brief: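 Diet-overlay assay: 50 μg/cm^2 compound applied in 90:10 acetone-water to artificial diet, allowed to dry, then infested with 1–5 L2 larvae/well; 8 wells/compound; covered, vented; 25° C., 14:10 L:D, 5–7 d; % mortality per well, averaged.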

Series [3] deals with Cabbage Looper (Trichoplusia ni, TRIPNI). Briefly: Bioassays on Cabbage Looper (CL), 128-well diet tray assay. The conditions noted are these: Trichoplusia ni. The method in brief: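 Second-instar larvae (1–5 per well) placed on artificial diet surface-treated with 50 μg/cm^2 test molecule applied in 90:10 acetone-water and dried. Held at 25° C., 14:10 light-dark, for five to seven days. Percent mortality scored per well and averaged over eight wells.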

The mark [4] stands for this setting: Beet Armyworm, Table ABC / ABC-DP rating, read-out: BAW rating.
Where [5] appears, read: Cabbage Looper, Table ABC / ABC-DP rating, read-out: CL rating.
The mark [6] stands for this setting: Table ABC: Biological Results, species YFM.
Setting [7] is: Table ABC: Biological Results, species BAW, read-out: BAW.
Setting [8] is: Table ABC: Biological Results, species CL, read-out: CL.
[9] abbreviates: Yellow Fever Mosquito, rating class.
[10] abbreviates: Beet Armyworm, rating class, read-out: BAW.
Where [11] appears, read: Cabbage Looper, rating class, read-out: CL.

Each structure is given as a SMILES string. Like-named read-outs stand apart in the source and are kept apart here.

One may read the mortality as the share of the test organisms that died. With `CC(=NNC(=O)c1cc(NC(=O)[C@H]2[C@H](c3cc(Cl)cc(Cl)c3)C2(Cl)Cl)ccc1Cl)c1ccccc1` (relative stereo) [F3005, trans-2,2-Dichloro-N-(4-chloro-3-(2-(1-phenylethylidene)hydrazine-1-carbonyl)phenyl)-3-(3,5-dichlorophenyl)cyclopropane-1-carboxamide], the YFM rating result in series [1] (Yellow Fever Mosquito) is “A (80–100)”. For the same molecule, the “YFM % Control (or Mortality) rating” value in series [1] (about 1 day-old larvae, 4000 ppm master solution diluted with 90:10 water/acetone, 15 μL per well plus 220 μL larval mixture, 3 days, mortality) is “A (80–100)”. The mortality at 50 µg/cm2 in series [2] (168 h, second instar larvae, 50 μg/cm^2 of test molecule on artificial diet, 25° C., five to seven days, average of eight wells, read-out: BAW % Control (or Mortality) rating) is 50 to 100%; in series [3] (168 h, second instar larvae, 50 μg/cm^2 of test molecule on artificial diet, 25° C., five to seven days, average of eight wells, read-out: CL % Control (or Mortality) rating), 50 to 100%. Moreover, the pest or weed control at 50 µg/cm2 in series [2] (setting [4]) and in series [3] (setting [5]) was 50 to 100% throughout.

For `O=C(NNC(=O)c1cc(NC(=O)[C@H]2[C@H](c3cc(Cl)cc(Cl)c3)C2(Cl)Cl)ccc1Cl)c1ccccc1` (relative stereo) [F2519, trans-N-(3-(2-Benzoylhydrazine-1-carbonyl)-4-chlorophenyl)-2,2-dichloro-3-(3,5-dichlorophenyl)cyclopropane-1-carboxamide], the YFM rating entry in series [1] (Yellow Fever Mosquito) is reported as “A (80–100)”. The pest or weed control at 50 µg/cm2 in series [2] (setting [4]) and in series [3] (setting [5]) was 50 to 100% each time.

For `O=C(Nc1ccc(F)c(NC(=O)C(F)(F)Cl)c1F)c1cc(NC(=O)[C@H]2[C@H](c3ccc(F)c(C(F)(F)F)c3)C2(Cl)Cl)ccc1Cl` [F1170, 2-Chloro-N-(3-(2-chloro-2,2-difluoroacetamido)-2,4-difluorophenyl)-5-((1R,3R)-2,2-dichloro-3-(4-fluoro-3-(trifluoromethyl)phenyl)cyclopropane-1-carboxamido)benzamide], the YFM result in series [1] (setting [6]) is recorded as “A (80–100)”. For the same molecule, the pest or weed control at 50 µg/cm2 in series [2] (setting [7]) and in series [3] (setting [8]) was 50 to 100% in each case.

On to `O=C(NCCCCl)c1cc(NC(=O)[C@H]2[C@H](c3ccc(F)c(Cl)c3)C2(Cl)Cl)cc(F)c1Cl` (relative stereo) [F2036, trans-2-Chloro-N-(3-chloropropyl)-5-(2,2-dichloro-3-(3-chloro-4-fluorophenyl)cyclopropane-1-carboxamido)-3-fluorobenzamide], for which, in series [1] (Yellow Fever Mosquito), the YFM rating entry is recorded as “A (80–100)”. The pest or weed control at 50 µg/cm2 in series [2] (setting [4]) and in series [3] (setting [5]) was 50 to 100% in each case.

In the case of `O=C(Nc1ccc(F)c(I)c1F)c1cc(NC(=O)[C@H]2[C@H](c3ccc(F)c(C(F)(F)F)c3)C2(Cl)Cl)ccc1Cl` [F1758, 2-Chloro-5-((1R,3R)-2,2-dichloro-3-(4-fluoro-3-(trifluoromethyl)phenyl)cyclopropane-1-carboxamido)-N-(2,4-difluoro-3-iodophenyl)benzamide], the YFM result in series [1] (setting [9]) is on record as “A (80–100)”. The pest or weed control at 50 µg/cm2 in series [2] (setting [10]) and in series [3] (setting [11]) was 50 to 100% in each case.

For the molecule `O=C(Nc1ccc(F)cc1F)c1cc(NC(=O)[C@H]2[C@H](c3cc(F)c(F)c(Br)c3)C2(Cl)Cl)ccc1Cl` (relative stereo) [F1011, trans-5-(3-(3-Bromo-4,5-difluorophenyl)-2,2-dichlorocyclopropane-1-carboxamido)-2-chloro-N-(2,4-difluorophenyl)benzamide], in series [1] (setting [6]), the YFM entry was “A (80–100)”. For the same molecule, the pest or weed control at 50 µg/cm2 in series [2] (setting [7]) and in series [3] (setting [8]) was 50 to 100% throughout.

Consider `CC(=O)Nc1c(F)ccc(NC(=O)c2cc(NC(=O)[C@H]3[C@H](c4ccc(F)c(C(F)(F)F)c4)C3(Cl)Cl)ccc2Cl)c1Cl` [F1161, N-(3-Acetamido-2-chloro-4-fluorophenyl)-2-chloro-5-((1R,3R)-2,2-dichloro-3-(4-fluoro-3-(trifluoromethyl)phenyl)cyclopropane-1-carboxamido)benzamide], for which the YFM result in series [1] (setting [6]) is on record as “A (80–100)”. Further, the pest or weed control at 50 µg/cm2 in series [2] (setting [7]) and in series [3] (setting [8]) was 50 to 100% in each case.

Turning to `O=C(Nc1c(F)ccc(NC(=O)c2cc(NC(=O)[C@H]3[C@H](c4ccc(F)c(C(F)(F)F)c4)C3(Cl)Cl)ccc2Cl)c1F)c1ccco1` [F1300, N-(3-(2-Chloro-5-((1R,3R)-2,2-dichloro-3-(4-fluoro-3-(trifluoromethyl)phenyl)cyclopropane-1-carboxamido)benzamido)-2,6-difluorophenyl)furan-2-carboxamide], in series [1] (setting [6]), the YFM result is “A (80–100)”. Moreover, the pest or weed control at 50 µg/cm2 in series [2] (setting [7]) and in series [3] (setting [8]) was 50 to 100% in each case.

Turning to `O=C(NCCC(F)(F)F)c1c(F)ccc(NC(=O)[C@H]2[C@H](c3ccc(F)c(Cl)c3)C2(Cl)Cl)c1F` (relative stereo) [F2023, trans-3-(2,2-Dichloro-3-(3-chloro-4-fluorophenyl)cyclopropane-1-carboxamido)-2,6-difluoro-N-(3,3,3-trifluoropropyl)benzamide], the YFM rating entry in series [1] (Yellow Fever Mosquito) is “A (80–100)”. Moreover, the pest or weed control at 50 µg/cm2 in series [2] (setting [4]) and in series [3] (setting [5]) was 50 to 100% in each case.

On to `O=C(Nc1ccc(F)cc1F)c1cc(NC(=O)[C@H]2[C@@H](c3cc(Cl)c(F)c(Cl)c3)C2(Cl)Cl)ccc1Cl` (relative stereo) [F1173, cis-2-Chloro-5-(2,2-dichloro-3-(3,5-dichloro-4-fluorophenyl)cyclopropane-1-carboxamido)-N-(2,4-difluorophenyl)benzamide], for which, in series [1] (setting [6]), the YFM entry is “A (80–100)”. Also, the pest or weed control at 50 µg/cm2 in series [2] (setting [7]) and in series [3] (setting [8]) was 50 to 100% throughout.

For the molecule `O=C(Nc1ccc(F)c(NC(=O)C(F)F)c1F)c1cc(NC(=O)[C@H]2[C@H](c3ccc(Cl)c(Br)c3)C2(Cl)Cl)ccc1Cl` (relative stereo) [F1359, trans-5-(3-(3-Bromo-4-chlorophenyl)-2,2-dichlorocyclopropane-1-carboxamido)-2-chloro-N-(3-(2,2-difluoroacetamido)-2,4-difluorophenyl)benzamide], the YFM result in series [1] (setting [6]) is given as “A (80–100)”. For the same molecule, the pest or weed control at 50 µg/cm2 in series [2] (setting [7]) and in series [3] (setting [8]) was 50 to 100% each time.

In the case of `O=C(Nc1ccc(F)cc1F)c1cc(NC(=O)[C@H]2[C@@H](c3cc(F)c(F)c(Br)c3)C2(Cl)Cl)ccc1Cl` (relative stereo) [F1012, cis-5-(3-(3-Bromo-4,5-difluorophenyl)-2,2-dichlorocyclopropane-1-carboxamido)-2-chloro-N-(2,4-difluorophenyl)benzamide], in series [1] (setting [6]), the YFM entry is “A (80–100)”. The pest or weed control at 50 µg/cm2 in series [2] (setting [7]) and in series [3] (setting [8]) was 50 to 100% each time.

Consider `Cc1c(Cl)cc(NC(=O)[C@H]2[C@H](c3ccc(F)c(Cl)c3)C2(Cl)Cl)cc1C(=O)NCC(F)(F)C(F)(F)F` (relative stereo) [F2043, trans-3-Chloro-5-(2,2-dichloro-3-(3-chloro-4-fluorophenyl)cyclopropane-1-carboxamido)-2-methyl-N-(2,2,3,3,3-pentafluoropropyl)benzamide], for which the YFM rating result in series [1] (Yellow Fever Mosquito) is reported as “A (80–100)”. The pest or weed control at 50 µg/cm2 in series [2] (setting [4]) and in series [3] (setting [5]) was 50 to 100% each time.

Take `CC(=O)Nc1ccc(NC(=O)c2cc(NC(=O)[C@H]3[C@H](c4ccc(F)c(Cl)c4)C3(Cl)Cl)cc(C(F)(F)F)c2Cl)cc1` (relative stereo) [F1216, trans-N-(4-Acetamidophenyl)-2-chloro-5-(2,2-dichloro-3-(3-chloro-4-fluorophenyl)cyclopropane-1-carboxamido)-3-(trifluoromethyl)benzamide]: in series [1] (setting [6]), the YFM result is on record as “A (80–100)”. Also, the pest or weed control at 50 µg/cm2 in series [2] (setting [7]) and in series [3] (setting [8]) was 50 to 100% throughout.

As to `O=C(Nc1ccc(F)c(NC(=O)C(F)(F)F)c1F)c1cc(NC(=O)[C@H]2[C@H](c3cc(Cl)cc(Cl)c3)C2(Cl)Cl)cc(F)c1F` [F1441, 5-((1R,3R)-2,2-Dichloro-3-(3,5-dichlorophenyl)cyclopropane-1-carboxamido)-N-(2,4-difluoro-3-(2,2,2-trifluoroacetamido)phenyl)-2,3-difluorobenzamide], in series [1] (setting [9]), the YFM result was “A (80–100)”. Moreover, the pest or weed control at 50 µg/cm2 in series [2] (setting [10]) and in series [3] (setting [11]) was 50 to 100% throughout.

Take `O=C(Nc1ccc(F)c(NC(=O)C(F)F)c1F)c1cc(NC(=O)[C@H]2[C@H](c3cc(Cl)cc(Cl)c3)C2(Cl)Cl)cc(F)c1F` [F1440, 5-((1R,3R)-2,2-Dichloro-3-(3,5-dichlorophenyl)cyclopropane-1-carboxamido)-N-(3-(2,2-difluoroacetamido)-2,4-difluorophenyl)-2,3-difluorobenzamide]: the YFM entry in series [1] (setting [9]) is “A (80–100)”. Also, the pest or weed control at 50 µg/cm2 in series [2] (setting [10]) and in series [3] (setting [11]) was 50 to 100% each time.

In the case of `COCC(=O)Nc1c(F)ccc(NC(=O)c2cc(NC(=O)[C@H]3[C@H](c4ccc(Cl)c(Cl)c4)C3(Cl)Cl)ccc2Cl)c1F` [F1254, 2-Chloro-5-((1R,3R)-2,2-dichloro-3-(3,4-dichlorophenyl)cyclopropane-1-carboxamido)-N-(2,4-difluoro-3-(2-methoxyacetamido)phenyl)benzamide], the YFM result in series [1] (setting [6]) was “A (80–100)”. In addition, the pest or weed control at 50 µg/cm2 in series [2] (setting [7]) and in series [3] (setting [8]) was 50 to 100% each time.
